Assay results from PMC11647902, “Design, Synthesis, and Biological Evaluation of [1,2,5]Oxadiazolo[3,4-b]pyridin-7-ol as Mitochondrial Uncouplers for the Treatment of Obesity and Metabolic Dysfunction-Associated Steatohepatitis” (Journal of Medicinal Chemistry, 2024).

Tested on: L6 rat myoblasts
Assay: OCR Seahorse assay (oxygen consumption rate, mitochondrial uncoupling)
Conditions: for % of BAM15 OCR / uncoupling (OCR) activity in words / cellular toxicity in OCR assay: L6 myoblasts; for % of BAM15 OCR / Emax at 200 µM: integrated area under OCR dose curve above baseline relative to BAM15 of same experiment; for Emax at 200 µM: L6, read-out: % of BAM15 OCR, L6 myoblasts; for cellular toxicity in OCR assay: at higher concentrations
[1] = NA = No Activity, highest tested concentration 200 μM
[2] = OCR in L6 myoblasts, NA = No Activity, highest tested concentration 200 μM
[3] = Rattus norvegicus, NA = No Activity, highest tested concentration 200 μM

Description: With 7 and 9 derivatives in hand, we screened for mitochondrial uncoupling activity as a function of oxygen consumption rate (OCR). […] OCR was measured using an Agilent Seahorse XF24 or XFe96 Analyzer (Agilent Technologies, Santa Clara, CA). L6 myoblasts were seeded in a Seahorse 24 or 96-well tissue culture plate at a density of 3.5 × 10^4 cells/well. The cells were then allowed to adhere overnight. […] Compounds were injected during the assay, and OCR was measured using 2 min measurement periods. Cells were treated with a single drug concentration per well and measured over a 90 min period. Two wells were used per condition and, where applicable, results from multiple plates were averaged together. The first three measurements after injection for each concentration were averaged to produce a dose curve. […] AUC values were also calculated using the same software.

## 6-((4-Butoxyphenyl)amino)-[1,2,5]oxadiazolo[3,4-b]pyridin-7-ol [7f]
[1]
  % of BAM15 OCR: 20%
[2]
  EC50: 6 µM

## 6-([1,1′-Biphenyl]-2-ylamino)-[1,2,5]oxadiazolo[3,4-b]pyridin-7-ol [7aj]
[1]
  % of BAM15 OCR: 20%
[2]
  EC50: 6 ± 1.2 µM

## Oc1c(Nc2ccccc2)cnc2nonc12 [7a, 6-(Phenylamino)-[1,2,5]oxadiazolo[3,4-b]pyridin-7-ol]
Rattus norvegicus, L6
  EC50: 59 ± 3.4 µM
[3]
  Emax at 200 µM: 40%

## Oc1c(Nc2cccc(Cl)c2F)cnc2nonc12 [7aa, 6-((3-Chloro-2-fluorophenyl)amino)-[1,2,5]oxadiazolo[3,4-b]pyridin-7-ol]
Rattus norvegicus, L6
  EC50: 32 ± 1.9 µM
[3]
  Emax at 200 µM: 68%

## Oc1c(Nc2cccc(C(F)(F)F)c2F)cnc2nonc12 [7ab, 6-((2-Fluoro-3-(trifluoromethyl)phenyl)amino)-[1,2,5]oxadiazolo[3,4-b]pyridin-7-ol]
Rattus norvegicus, L6
  EC50: 43 ± 5.2 µM
[3]
  Emax at 200 µM: 71%

## Oc1c(Nc2cc(C(F)(F)F)ccc2F)cnc2nonc12 [7ac, 6-((2-Fluoro-5-(trifluoromethyl)phenyl)amino)-[1,2,5]oxadiazolo[3,4-b]pyridin-7-ol]
Rattus norvegicus, L6
  EC50: 11 ± 6.7 µM
[3]
  Emax at 200 µM: 55%

## Oc1c(Nc2c(F)cccc2C(F)(F)F)cnc2nonc12 [7ad, 6-((2-Fluoro-6-(trifluoromethyl)phenyl)amino)-[1,2,5]oxadiazolo[3,4-b]pyridin-7-ol]
Rattus norvegicus, L6
  EC50: 28 ± 3.9 µM
[3]
  Emax at 200 µM: 55%

## Oc1c(Nc2cc(C(F)(F)F)c(F)cc2F)cnc2nonc12 [7ae, 6-((2,4-Difluoro-5-(trifluoromethyl)phenyl)amino)-[1,2,5]oxadiazolo[3,4-b]pyridin-7-ol]
Rattus norvegicus, L6
  EC50: 40 ± 4.5 µM
[3]
  Emax at 200 µM: 48%

## Oc1c(Nc2cc(F)ccc2C(F)(F)F)cnc2nonc12 [7af, 6-((5-Fluoro-2-(trifluoromethyl)phenyl)amino)-[1,2,5]oxadiazolo[3,4-b]pyridin-7-ol]
Rattus norvegicus, L6
  EC50: 25 ± 12 µM
[3]
  Emax at 200 µM: 54%

## Oc1c(Nc2cc(F)cc(C(F)(F)F)c2)cnc2nonc12 [7ag, 6-((3-Fluoro-5-(trifluoromethyl)phenyl)amino)-[1,2,5]oxadiazolo[3,4-b]pyridin-7-ol]
Rattus norvegicus, L6
  EC50: 40 ± 0.9 µM
[3]
  Emax at 200 µM: 38%

## Oc1c(Nc2ccc(-c3ccccc3)cc2F)cnc2nonc12 [7ah, 6-((3-Fluoro-[1,1′-biphenyl]-4-yl)amino)-[1,2,5]oxadiazolo[3,4-b]pyridin-7-ol]
Rattus norvegicus, L6
  EC50: 2 ± 0.5 µM
[3]
  Emax at 200 µM: 10%

## Oc1c(Nc2ccc(-c3ccccc3F)cc2)cnc2nonc12 [7ak, 6-((2′-Fluoro-[1,1′-biphenyl]-4-yl)amino)-[1,2,5]oxadiazolo[3,4-b]pyridin-7-ol]
  uncoupling (OCR) activity in words: not tolerated

## Oc1c(Nc2ccc(-c3cccc(C(F)(F)F)c3)cc2)cnc2nonc12 [7an, 6-((3′-(Trifluoromethyl)-[1,1′-biphenyl]-4-yl)amino)-[1,2,5]oxadiazolo[3,4-b]pyridin-7-ol]
  cellular toxicity in OCR assay: showed cellular toxicity at higher concentrations
Rattus norvegicus, L6
  EC50: 0.5 ± 0.1 µM
[3]
  Emax at 200 µM: 25%

## Oc1c(Nc2ccc(-c3ccc(C(F)(F)F)cc3)cc2)cnc2nonc12 [7aq, 6-((4′-(Trifluoromethyl)-[1,1′-biphenyl]-4-yl)amino)-[1,2,5]oxadiazolo[3,4-b]pyridin-7-ol]
  uncoupling (OCR) activity in words: not tolerated
  cellular toxicity in OCR assay: exhibited toxicity

## Oc1c(Nc2ccc(-c3ccc(C(F)(F)F)nc3)cc2)cnc2nonc12 [7ar, 6-((4-(6-(Trifluoromethyl)pyridin-3-yl)phenyl)amino)-[1,2,5]oxadiazolo[3,4-b]pyridin-7-ol]
Rattus norvegicus, L6
  EC50: 7 ± 1.9 µM
[3]
  Emax at 200 µM: 17%

## Oc1c(Nc2ccc(-c3cc(C(F)(F)F)cc(C(F)(F)F)c3)cc2)cnc2nonc12 [7aw, 6-((3′,5′-Bis(trifluoromethyl)-[1,1′-biphenyl]-4-yl)amino)-[1,2,5]oxadiazolo[3,4-b]pyridin-7-ol]
Rattus norvegicus, L6
  EC50: 41 ± 4.9 µM
[3]
  Emax at 200 µM: 20%

## Oc1c(Nc2ccc3ccccc3c2)cnc2nonc12 [7ax, 6-(Naphthalen-2-ylamino)-[1,2,5]oxadiazolo[3,4-b]pyridin-7-ol]
Rattus norvegicus, L6
  EC50: 13 ± 1.2 µM
[3]
  Emax at 200 µM: 48%

## Cc1ccc(Nc2cnc3nonc3c2O)cc1 [7b, 6-(p-Tolylamino)-[1,2,5]oxadiazolo[3,4-b]pyridin-7-ol]
Rattus norvegicus, L6
  EC50: 49 µM
[3]
  Emax at 200 µM: 38%

## CCc1ccc(Nc2cnc3nonc3c2O)cc1 [7c, 6-((4-Ethylphenyl)amino)-[1,2,5]oxadiazolo[3,4-b]pyridin-7-ol]
Rattus norvegicus, L6
  EC50: 14 ± 1.7 µM
[3]
  Emax at 200 µM: 50%

## CCCCc1ccc(Nc2cnc3nonc3c2O)cc1 [7d, 6-((4-Butylphenyl)amino)-[1,2,5]oxadiazolo[3,4-b]pyridin-7-ol]
[3]
  Emax at 200 µM: 19%

## CC(C)(C)c1ccc(Nc2cnc3nonc3c2O)cc1 [7e, 6-((4-(tert-Butyl)phenyl)amino)-[1,2,5]oxadiazolo[3,4-b]pyridin-7-ol]
Rattus norvegicus, L6
  EC50: 2 ± 0.4 µM
[3]
  Emax at 200 µM: 7%

## CC(C)(C#N)c1ccc(Nc2cnc3nonc3c2O)cc1 [7g, 2-(4-((7-Hydroxy-[1,2,5]oxadiazolo[3,4-b]pyridin-6-yl)amino)phenyl)-2-methylpropanenitrile]
Rattus norvegicus, L6
  EC50: > 100 µM
[3]
  Emax at 200 µM: 10%

## Oc1c(Nc2ccc(SC(F)(F)F)cc2)cnc2nonc12 [7h, 6-((4-((Trifluoromethyl)thio)phenyl)amino)-[1,2,5]oxadiazolo[3,4-b]pyridin-7-ol]
Rattus norvegicus, L6
  EC50: 6 ± 0.4 µM
[3]
  Emax at 200 µM: 38%

## Oc1c(Nc2ccc(F)nc2)cnc2nonc12 [7k, 6-((6-Fluoropyridin-3-yl)amino)-[1,2,5]oxadiazolo[3,4-b]pyridin-7-ol]
  uncoupling (OCR) activity in words: inactive

## Oc1c(-c2ccc(C(F)(F)F)nc2)cnc2nonc12 [7l, 6-(6-(Trifluoromethyl)pyridin-3-yl)-[1,2,5]oxadiazolo[3,4-b]pyridin-7-ol]
  uncoupling (OCR) activity in words: inactive

## Oc1c(Nc2ccccc2F)cnc2nonc12 [7m, 6-((2-Fluorophenyl)amino)-[1,2,5]oxadiazolo[3,4-b]pyridin-7-ol]
7m versus 7a
  increase of BAM15 uncoupling capability compared with the nonsubstituted aniline: 72%
Rattus norvegicus, L6
  EC50: 32 ± 1.8 µM
[3]
  Emax at 200 µM: 69%

## Oc1c(Nc2cccc(F)c2)cnc2nonc12 [7n, 6-((3-Fluorophenyl)amino)-[1,2,5]oxadiazolo[3,4-b]pyridin-7-ol]
Rattus norvegicus, L6
  EC50: 51 ± 2.6 µM
[3]
  Emax at 200 µM: 55%

## Oc1c(Nc2ccc(F)cc2)cnc2nonc12 [7o, 6-((4-Fluorophenyl)amino)-[1,2,5]oxadiazolo[3,4-b]pyridin-7-ol]
Rattus norvegicus, L6
  EC50: > 100 µM
[3]
  Emax at 200 µM: 32%

## Oc1c(Nc2ccccc2Cl)cnc2nonc12 [7p, 6-((2-Chlorophenyl)amino)-[1,2,5]oxadiazolo[3,4-b]pyridin-7-ol]
Rattus norvegicus, L6
  EC50: 27 ± 1.9 µM
[3]
  Emax at 200 µM: 69%

## Oc1c(Nc2ccccc2C(F)(F)F)cnc2nonc12 [7q, 6-((2-(Trifluoromethyl)phenyl)amino)-[1,2,5]oxadiazolo[3,4-b]pyridin-7-ol]
Rattus norvegicus, L6
  EC50: 34 ± 4 µM
[3]
  Emax at 200 µM: 57%

## Oc1c(Nc2cccc(C(F)(F)F)c2)cnc2nonc12 [7r, 6-((3-(Trifluoromethyl)phenyl)amino)-[1,2,5]oxadiazolo[3,4-b]pyridin-7-ol]
Rattus norvegicus, L6
  EC50: 22 ± 1.8 µM
[3]
  Emax at 200 µM: 48%

## Oc1c(Nc2ccc(C(F)(F)F)cc2)cnc2nonc12 [7s, 6-((4-(Trifluoromethyl)phenyl)amino)-[1,2,5]oxadiazolo[3,4-b]pyridin-7-ol]
Rattus norvegicus, L6
  EC50: 35 ± 1.7 µM
[3]
  Emax at 200 µM: 43%

## Oc1c(Nc2cccc(F)c2F)cnc2nonc12 [7t, 6-((2,3-Difluorophenyl)amino)-[1,2,5]oxadiazolo[3,4-b]pyridin-7-ol]
Rattus norvegicus, L6
  EC50: 64 ± 3.3 µM
[3]
  Emax at 200 µM: 60%

## Oc1c(Nc2ccc(F)cc2F)cnc2nonc12 [7u, 6-((2,4-Difluorophenyl)amino)-[1,2,5]oxadiazolo[3,4-b]pyridin-7-ol]
Rattus norvegicus, L6
  EC50: 40 ± 1.9 µM
[3]
  Emax at 200 µM: 83%

## Oc1c(Nc2cc(F)ccc2F)cnc2nonc12 [7v, 6-((2,5-Difluorophenyl)amino)-[1,2,5]oxadiazolo[3,4-b]pyridin-7-ol]
Rattus norvegicus, L6
  EC50: 64 ± 5.3 µM
[3]
  Emax at 200 µM: 69%

## Oc1c(Nc2c(F)cccc2F)cnc2nonc12 [7w, 6-((2,6-Difluorophenyl)amino)-[1,2,5]oxadiazolo[3,4-b]pyridin-7-ol]
Rattus norvegicus, L6
  EC50: 52 ± 8.8 µM
[3]
  Emax at 200 µM: 54%

## Oc1c(Nc2ccc(F)c(F)c2)cnc2nonc12 [7x, 6-((3,4-Difluorophenyl)amino)-[1,2,5]oxadiazolo[3,4-b]pyridin-7-ol]
Rattus norvegicus, L6
  EC50: 63 ± 3.7 µM
[3]
  Emax at 200 µM: 55%

## Oc1c(Nc2ccc(F)c(F)c2F)cnc2nonc12 [7y, 6-((2,3,4-Trifluorophenyl)amino)-[1,2,5]oxadiazolo[3,4-b]pyridin-7-ol]
Rattus norvegicus, L6
  EC50: 44 ± 3.6 µM
[3]
  Emax at 200 µM: 68%

## Oc1c(Nc2c(F)c(F)c(F)c(F)c2F)cnc2nonc12 [7z, 6-((Perfluorophenyl)amino)-[1,2,5]oxadiazolo[3,4-b]pyridin-7-ol]
Rattus norvegicus, L6
  EC50: 18 ± 2.4 µM
[3]
  Emax at 200 µM: 50%

## Oc1c(-c2ccccc2F)cnc2nonc12 [9a, 6-(2-Fluorophenyl)-[1,2,5]oxadiazolo[3,4-b]pyridin-7-ol]
Rattus norvegicus, L6
  EC50: 27 ± 2.8 µM
[3]
  Emax at 200 µM: 69%

## Oc1c(-c2ccccc2Cl)cnc2nonc12 [9b, 6-(2-Chlorophenyl)-[1,2,5]oxadiazolo[3,4-b]pyridin-7-ol]
Rattus norvegicus, L6
  EC50: 85 ± 16 µM
[3]
  Emax at 200 µM: 49%

## Oc1c(-c2cccc(Cl)c2)cnc2nonc12 [9c, 6-(3-Chlorophenyl)-[1,2,5]oxadiazolo[3,4-b]pyridin-7-ol]
Rattus norvegicus, L6
  EC50: 25 ± 3.1 µM
[3]
  Emax at 200 µM: 61%

## Oc1c(-c2cccc(C(F)(F)F)c2)cnc2nonc12 [9d, 6-(3-(Trifluoromethyl)phenyl)-[1,2,5]oxadiazolo[3,4-b]pyridin-7-ol]
  cellular toxicity in OCR assay: exhibited cellular toxicity at higher concentrations
Rattus norvegicus, L6
  EC50: 26 ± 4.5 µM
[3]
  Emax at 200 µM: 59%

## Oc1c(-c2ccc(Cl)cc2)cnc2nonc12 [9e, 6-(4-Chlorophenyl)-[1,2,5]oxadiazolo[3,4-b]pyridin-7-ol]
Rattus norvegicus, L6
  EC50: 12 ± 0.6 µM
[3]
  Emax at 200 µM: 52%
